# Patent publication US20120156139A1, “ISOTOPICALLY LABELED NEUROCHEMICAL AGENTS AND USES THEROF FOR DIAGNOSING CONDITIONS AND DISORDERS” (priority 2009, published 2012)
# Legend:
# Assay type in all cases: physicochemical
# [1] = 13C T1 inversion recovery studies of choline and deuterated cholines at 11.8 T; details: for Elongation factor, T1 of C1 / Elongation factor, T1 of C2: relative to choline Cl- (A)
# Description: The data in Table 2 were obtained using a series of inversion recovery studies at 11.8 T which were carried out in order to determine the ^13C T1 relaxation times of a deuterated choline molecule and of a partially deuterated choline molecule [1,1,2,2-D4]-choline Cr. The T1 of the trimethyl amine position in the fully deuterated choline molecule was 28 sec, which represented an approximate 8 fold elongation factor compared to the native choline molecule in which the trimethyl amine positions are protonated. Inversion recovery studies were carried out on a 500 MHz scanner (Varian), equipped with a 5 mm double tuned ^13C/^1H probe. Carbon-13 signals were detected in these molecules at natural abundance. The number of transitions ranged between 300 to 400 per relaxation delay (r) with a total scanning time of 12 to 67 hours due to a relaxation delay of 130 sec. The data were fitted to the standard inversion recovery equation. The possible effect of concentration on T1 was investigated in a concentration range of 20 mM to […], no significant effect of concentration on T1 was found in this concentration range. Choline Cl^− and [1,1,2,2-D4]-Choline CU were obtained from Sigma-Aldrich (Israel). Choline-D13 Br^− (fully deuterated) was obtained from Cambridge Isotope Laboratories (MA, USA).
# [2] = 13C T1 inversion recovery studies of L-DOPA, dopamine and partially deuterated dopamine; details: for T1 of C1 / T1 of C2 / T1 of C3: 13C at natural abundance, inversion recovery, 500 MHz scanner; for Elongation factor, T1 of C1 / Elongation factor, T1 of C2 / Elongation factor, T1 of C3: relative to dopamine HCl (A)
# Description: Inversion recovery studies were carried out on protonated L-DOPA and dopamine and partially deuterated dopamine a in order to determine the ^13C T1 relaxation times in these molecules. The inversion recovery studies were carried out on a 500 MHz scanner (Varian), equipped with a 5 mm double tuned ^13C/^1H probe. Carbon-13 signals were detected in these molecules at natural abundance. The number of transitions ranged between 300 to 400 per relaxation delay (t) with a total scanning time of 12 to 48 hours. Dopamine HCl and L-DOPA were obtained from Sigma-Aldrich (Israel). [1,1,2,2-D4]-Dopamine HCl, and [D3-ring, 2,2-D2]-Dopamine were obtained from Cambridge Isotope Laboratories (MA, USA).
# [3] = T1 values of additional deuterated compounds
# [4] = T1 of position 2 in [1,1,2,2-D4,2-13C]-choline at various magnetic field strengths and temperatures; details: for Liquid state T1 of position 2: DNP-enhanced liquid state sample, 14.1 T
# Description: The T1 of position 2 in [1,1,2,2-D4,2-^13C]-choline was further investigated at various magnetic field strengths and temperatures. The liquid state T1 was measured on a DNP-enhanced liquid state sample at 14.1 T at approx. 37° C. (T1=48±2 sec) and at higher temperatures of between about 40 to about 50° C. (T1=56±4 sec).
# In addition, thermal equilibrium T1 measurement was performed at 9.4 T at 37° C. (T1=41 sec). The low field T1 of [1,1,2,2-D4,2-^13C]-choline was estimated by placing the enhanced sample in the fringe field of an unshielded 14.1 T magnet (n=2). From this experiment it was concluded that the low field T1 is long (>40 s) and that the T1 of the deuterated methylene carbon in choline is less affected by field strength.
# [5] = 13C at natural abundance, inversion recovery, 11.8 T
Structure (SMILES),"T1 of C1 [1, 5]","T1 of C2 [1, 5]",T1 of C1 [2],T1 of C2 [2],T1 of C3 [2],also measured
"[2H]C([2H])(O)C([2H])([2H])[N+](C)(C)C.[Cl-] [[1,1,2,2-D4]-choline Cl^−]",29.1 s,34.9 s,,,,"Elongation factor, T1 of C1 ([1]; 11.8 T): 5.6; Elongation factor, T1 of C2 ([1]; 11.8 T): 7.1"
"N[C@@H](Cc1ccc(O)c(O)c1)C(=O)O [L-DOPA (non deuterated), L-DOPA]",,,2.3 s,2.3 s,3.9 s,
"Cl.[2H]C([2H])(N)C([2H])([2H])c1ccc(O)c(O)c1 [[1,1,2,2-D4]-dopamine HCl]",,,8.7 s,9.3 s,6.3 s,"Elongation factor, T1 of C1 [2]: 7.9; Elongation factor, T1 of C2 [2]: 9.3; Elongation factor, T1 of C3 [2]: 1.0"
"[2H]c1c([2H])c([2H])c2c(C([2H])([2H])[C@]([2H])(N)C(=O)O)c[nH]c2c1[2H] [[D7]-L-tryptophan, [D7]-L-tryptophan: C6D4C(CD2-CD(NH2)COOH)CH—NH]",,,,,,"T1 of position 10 ([3]; dissolved in H2O and 15% D2O (54.5 mM), 11.8 T): ~13 s"
Cl.NCCc1ccc(O)c(O)c1 [dopamine HCl],,,1.1 s,1.0 s,6.4 s,
"[2H]C([2H])(NC(=N)N)C([2H])([2H])C([2H])([2H])[C@]([2H])(N)C(=O)O [[2,3,3,4,4,5,5-D7]-arginine, [2,3,3,4,4,5,5-D7]-arginine: NH2C(NH)NHCD2CD2CD2CD(NH2)CO2H]",,,,,,"T1 of carbons at positions 2, 3, 4, and 5 [3]: ~8 s"
"[2H]C([2H])(O)[13C]([2H])([2H])[N+](C)(C)C [[1,1,2,2-D4,2-^13C]-choline]",,,,,,"Thermal equilibrium T1 ([4]; 9.4 T, 37 °C): 41 s; Liquid state T1 of position 2 ([4]; about 40 to about 50 °C): 56 ± 4 s; Liquid state T1 of position 2 ([4]; approx. 37 °C): 48 ± 2 s; Low field T1 ([4]; enhanced sample in the fringe field of an unshielded 14.1 T magnet, n=2, estimated): > 40 s"

# The next lines start with results.
"T1 of C1 [1, 5]","T1 of C2 [1, 5]",T1 of C1 [2],T1 of C2 [2],T1 of C3 [2],Structure (SMILES),also measured
32.0 s,32.9 s,,,,[2H]C([2H])(O)C([2H])([2H])[N+](C([2H])([2H])[2H])(C([2H])([2H])[2H])C([2H])([2H])[2H].[Br-] [[D13]-choline Br^−],"T1 of the trimethyl amine position [1, 5]: 28 s; Elongation factor of T1 of the trimethyl amine position ([1]; compared to the native choline molecule with protonated trimethyl amine positions): ~8 fold; Elongation factor, T1 of C1 ([1]; 11.8 T): 6.2; Elongation factor, T1 of C2 ([1]; 11.8 T): 6.7"
,,1.0 s,4.4 s,5.4 s,"Cl.[2H]c1c([2H])c(C([2H])([2H])CN)c([2H])c(O)c1O [[D3 ring,2,2-D2]-dopamine HCl]","Elongation factor, T1 of C1 [2]: 1.0; Elongation factor, T1 of C2 [2]: 4.4; Elongation factor, T1 of C3 [2]: 0.8"
5.2 s,4.9 s,,,,C[N+](C)(C)CCO.[Cl-] [choline Cl^−],
